Assay results as given in patent publication US20230295436A1, “INTERMOLECULARLY-FABRICATED COMPOSITION FOR ENCAPSULATING PLANT MATERIALS, AGROCHEMICALS AND PHARMACEUTICALS” (University of Central Florida Research Foundation, Inc., priority 2022, published 2023).
Values after ≈ are worked out from the molar mass of the structure shown.

Legend:
[1] = Dynamic light scattering (hydrodynamic size, PDI); assay type: physicochemical; conditions: optimized formulations and controls, Table 1
From the text: (§1) Malvern Zetasizer Nano ZS90 was used to study the hydrodynamic size, surface charge, and polydispersity index (PDI) of the NPs. Agilent Cary 300 Bio UV-Vis spectrophotometer was used to measure the absorbance of materials across the UV-Visible spectrum. Spectronic 200 spectrophotometer was used to carry out the degradation and release rate studies. Samples were freeze-dried using a Labconco lyophilizer. Shimadzu IRSpirit with QATR-S was used to obtain
(§2) DLS and ZP measurements were done using a Malvern Zetasizer ZS90 to determine the samples' hydrodynamic size and surface charge, respectively. The samples were diluted to approximately 200 ppm of curcumin to obtain 100 to 1000 kilo counts per second (kcps). Samples were added into the appropriate cuvettes for DLS and ZP readings.

[2] = Zeta potential (surface charge); assay type: physicochemical; conditions: optimized formulations and controls, Table 1
From the text: as §1, §2

[3] = Degradation rate of curcumin in aqueous solution; assay type: physicochemical
Protocol: The degradation rate of Cur-TA-PVP NPs and free curcumin was determined by measuring the peak absorbance over time as this can be correlated to the concentration in solution. […] Absorbance readings of samples were acquired at 425 nm every 60 minutes for 24 hours. Degradation rate equations were determined based on the trendlines that provide an R2 of 0.95 or greater. Simple linear regressions were also performed to compare the slopes of the degradation curves to determine if the difference was statistically significant.

S16 Rat Schwann Cells = assay: AlamarBlue viability assay, S16; assay type: cell-based; conditions: S16 RSCs, 24 hours, 0 to 80 μM curcumin
Protocol: The viability of cells when treated with Cur-TA-PVP, TA-PVP, or free curcumin was assessed to determine the therapeutic window of treatments. This was done by performing an alamarBlue (resazurin) assay according to the manufacturer's instructions. The cell types assessed were models for those involved in PNI and subsequent PNR: S16 rat Schwann cells (RSCs), J744 murine macrophages, and SH-SY5Y cells (neuronal cell line). SH-SY5Y cells were cultured in DMEM/F12 supplemented with 10% FBS and 1% penicillin/streptomycin, whereas the J744 macrophages and S16 RSCs were cultured in DMEM supplemented with 10% FBS and 1% streptomycin/penicillin.
First, cells (n=3) were seeded in 96 well plates at a density of 10^4 cells per well and incubated overnight in a humidified atmosphere at 37° C. and 5% CO2. Cur-TA-PVP and free curcumin were then introduced into the wells at a concentration range of 0 to 80 μM curcumin. In the case of TA-PVP, the concentration range was equivalent to TA and PVP concentrations in the Cur-TA-PVP NPs. The plates were incubated for 24 hours, and the media containing treatments was then removed and fresh media with 10% 0.15 mg/mL resazurin was added into all wells. The plates were incubated for 2 hours, and the fluorescence was read using a Tecan plate reader at an ex/em of 560/590 nm. The cell viability was calculated using the following equation.

SH-SY5Y cells = assay: H2O2-induced oxidative stress and cell viability, SH-SY5Y; assay type: cell-based; conditions: 6 hours pre-treatment, 50 μM H2O2 for 18 hours
Protocol: The potential for Cur-TA-PVP, TA-PVP, or free curcumin to rescue cells from oxidative damage induced by H2O2 was assessed to determine the antioxidant activity of the treatments in cells. The assay was performed according to a previously published protocol by Mahakunakorn et al. [Mahakunakorn, P., et al., Cytoprotective and cytotoxic effects of curcumin: dual action on H2O2-induced oxidative cell damage in NG108-15 cells. Biol Pharm Bull, 2003. 26(5): p. 725-8.]. Briefly, SH-SY5Y cells and J744 murine macrophages were each seeded in 96 well plates (n=3) and incubated overnight at 37° C. and 5% CO2. Cells were then pre-treated with fresh media containing treatments for 6 hours, and then with fresh media containing 100 μM H2O2 (J774) or 50 μM (SH-SY5Y) for another 18 hours. The media was then replaced with complete media containing 10% of 0.15 mg/mL resazurin. The cells were incubated for 2 hours, and the fluorescence was read at an ex/em of 560/590 nm. The cell viability was determined using the equation noted in section 10.3.1.

[4] = Appearance / colloidal stability in water; assay type: physicochemical; conditions: aqueous solution
From the text: Biochim Biophys Acta, 2008. 1780(4): p. 673-9.]. Curcumin directly interacts with or leads to the upregulation of many intracellular proteins involved in anti-inflammation, antioxidant, neuroprotective, and re-myelination pathways [Caillaud, M., et al., Key Developments in the Potential of Curcumin for the Treatment of Peripheral Neuropathies. Antioxidants (Basel), 2020. 9(10).]. Thus, the therapeutic potential of free curcumin is lowered by its propensity to reside in the lipid bilayer. Since the TA-PVP carrier improves the stability of curcumin in water, it is therefore expected that this would enhance its availability within the cytoplasm of cells to reach or upregulate targets involved in achieving successful PNR. The NP formulation dramatically increases the colloidal stability of curcumin compared to its free form alone in the aqueous solution.

[5] = cited from earlier work

COc1cc(/C=C/C(=O)CC(=O)/C=C/c2ccc(O)c(OC)c2)ccc1O [Free Curcumin, curcumin]
Polydispersity Index (PDI) [1]: 0.578 | Z-ave [1]: 328 nm·days | Zeta Potential [2]: −13 mV | slope of degradation curve (simple linear regression) ([3]; 40 μM in water, absorbance at 425 nm every 60 minutes for 24 hours): −0.01123 | curcumin remaining in its viable form ([3]; after 24 hours of dispersion in PBS): about 60% | cell viability compared to other treatment groups (S16 Rat Schwann Cells): higher cell viability than the other treatment groups at all concentrations | protection against H2O2-induced oxidative stress (cell rescue) (SH-SY5Y cells): no cell rescue | colloidal stability in water (appearance) [4]: precipitate and sink to the bottom of the vial | water solubility [5]: 100 µg/mL (≈ 271 µM)
